According to patent publication US10927105B1 (Lundbeck La Jolla Research Center, Inc., priority 2017, dated 2021):

Biological target: MAGL (Homo sapiens (Human), UniProt Q99685)
Experiment: In vitro competitive activity-based protein profiling (human prefrontal cortex membrane fractions, FP-Rh probe), MAGL band
Conditions: read-out: MAGL IC50 (μM) (human); human prefrontal cortex membrane fractions
Procedure: Biological Evaluation In Vitro Competitive Activity-Based Protein Profiling.
Proteomes (mouse brain membrane fraction for mouse assays; human prefrontal cortex membrane fractions for human assays) (50 mL, 1.0 mg/mL total protein concentration) were preincubated with varying concentrations of inhibitors at 37° C. After 30 min, FP-Rh (1.0 mL, 50 mM in DMSO) was added and the mixture was incubated for another 30 min at 37° C. Reactions were quenched with SDS loading buffer (15 μL-4×) and run on SDS-PAGE.

MAGL, sequence (Q99685 whole entry): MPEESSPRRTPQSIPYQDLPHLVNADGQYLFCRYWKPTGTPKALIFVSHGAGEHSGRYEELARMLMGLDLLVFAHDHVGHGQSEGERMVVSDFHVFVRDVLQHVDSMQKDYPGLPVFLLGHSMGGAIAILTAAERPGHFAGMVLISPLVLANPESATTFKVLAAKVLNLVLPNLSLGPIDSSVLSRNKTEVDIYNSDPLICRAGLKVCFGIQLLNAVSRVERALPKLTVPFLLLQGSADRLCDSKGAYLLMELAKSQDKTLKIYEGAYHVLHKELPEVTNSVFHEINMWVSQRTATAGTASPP

IC50, < 0.1 µM:
CC(C)c1ccccc1O[C@H]1C[C@@H]2CN(C(=O)n3ccc(C(=O)O)n3)C[C@@H]2C1 [Example 221, 1-(trans-5-(2-isopropylphenoxy)-octahydrocyclopenta-[c]pyrrole-2-carbonyl)-1H-pyrazole-3-carboxylic acid]
O=C(O)c1ccn(C(=O)N2C[C@H]3C[C@H](Oc4cc(F)cc(Cl)c4)C[C@H]3C2)n1 [Example 222, 1-(trans-5-(3-chloro-5-fluorophenoxy)-octahydrocyclopenta-[c]pyrrole-2-carbonyl)-1H-pyrazole-3-carboxylic acid]
O=C(O)c1ccn(C(=O)N2C[C@H]3C[C@H](Oc4cc(Cl)cc(Cl)c4)C[C@H]3C2)n1 [Example 230, 1-(trans-5-(3,5-dichlorophenoxy)-octahydrocyclopenta-[c]pyrrole-2-carbonyl)-1H-pyrazole-3-carboxylic acid]
O=C(O)c1ccn(C(=O)N2C[C@H]3C[C@H](Oc4cccc(C(F)(F)F)c4)C[C@H]3C2)n1 [Example 231, 1-(trans-5-(3-(trifluoromethyl)-phenoxy)-octahydrocyclopenta-[c]pyrrole-2-carbonyl)-1H-pyrazole-3-carboxylic acid]
O=C(O)c1ccn(C(=O)N2C[C@H]3C[C@H](Oc4cccc(C5CCCC5)c4)C[C@H]3C2)n1 [Example 232, 1-(trans-5-(3-cyclopentyl-phenoxy)-octahydrocyclopenta-[c]pyrrole-2-carbonyl)-1H-pyrazole-3-carboxylic acid]
O=C(O)c1ccn(C(=O)N2C[C@H]3C[C@H](Oc4cccc(N5CCCC5)c4)C[C@H]3C2)n1 [Example 234, 1-(trans-5-(3-(pyrrolidin-1-yl)phenoxy)-octahydrocyclopenta-[c]pyrrole-2-cathonyl)-1H-pyrazole-3-carboxylic acid]
Cc1c(COC2CCN(C(=O)n3ccc(C(=O)O)n3)CC2)cccc1C(F)(F)F [Example 235, 1-(4-((2-methyl-3-(trifluoromethyl)-benzyl)oxy)-piperidine-1-carbonyl)-1H-pyrazole-3-carboxylic acid]
Cc1ccc(COC2CCN(C(=O)n3ccc(C(=O)O)n3)CC2)cc1C(F)(F)F [Example 236, 1-(4-((4-methyl-3-(trifluoromethyl)-benzyl)oxy)-piperidine-1-carbonyl)-1H-pyrazole-3-carboxylic acid]
O=C(O)c1ccn(C(=O)N2C[C@H]3C[C@H](Oc4ccccc4-c4ccccc4)C[C@H]3C2)n1 [Example 239, 1-(trans-5-([1,1′-biphenyl]-2-yloxy)-octahydrocyclopenta-[c]pyrrole-2-carbonyl)-1H-pyrazole-3-carboxylic acid]
O=C(O)c1ccn(C(=O)N2C[C@H]3C[C@H](Oc4ccc(-c5ccccc5)cc4)C[C@H]3C2)n1 [Example 240, 1-(trans-5-([1,1′-biphenyl]-4-yloxy)-octahydrocyclopenta-[c]pyrrole-2-carbonyl)-1H-pyrazole-3-carboxylic acid]
O=C(O)c1ccn(C(=O)N2C[C@H]3C[C@H](Oc4cccc(-c5cccnc5)c4)C[C@H]3C2)n1 [Example 241, 1-(trans-5-(3-(pyridin-3-yl)phenoxy)-octahydrocyclopenta-[c]pyrrole-2-carbonyl)-1H-pyrazole-3-carboxylic acid]
O=C(O)c1ccn(C(=O)N2C[C@H]3C[C@H](Oc4cccc(-c5ccccn5)c4)C[C@H]3C2)n1 [Example 242, 1-(trans-5-(3-(pyridin-2-yl)phenoxy)-octahydrocyclopenta-[c]pyrrole-2-carbonyl)-1H-pyrazole-3-carboxylic acid]
O=C(O)c1ccn(C(=O)N2C[C@H]3C[C@H](Oc4ccccc4-c4cccnc4)C[C@H]3C2)n1 [Example 244, 1-(trans-5-(2-(pyridin-3-yl)phenoxy)-octahydrocyclopenta-[c]pyrrole-2-cathonyl)-1H-pyrazole-3-carboxylic acid]
Cc1cc(-c2ccccc2)ccc1CN1CCN(C(=O)n2ccc(C(=O)O)n2)[C@H](C)C1 [Example 245, (R)-1-(2-methyl-4-((3-methyl-[1,1′-biphenyl]-4-yl)methyl)-piperazine-1-carbonyl)-1H-pyrazole-3-carboxylic acid]
Cc1ccc(Oc2cccc(CN3CCN(C(=O)n4ccc(C(=O)O)n4)CC3)c2)cc1 [Example 251, 1-(4-(3-(p-tolyloxy)benzyl)-piperazine-1-carbonyl)-1H-pyrazole-3-carboxylic acid]
Cc1cn(C(=O)N2C[C@H]3C[C@H](OCc4cc(F)cc(Cl)c4)C[C@H]3C2)nc1C(=O)O [Example 252, 1-(trans-5-((3-chloro-5-fluorobenzyl)oxy)-octahydrocyclopenta-[c]pyrrole-2-carbonyl)-4-methyl-1H-pyrazole-3-carboxylic acid]
C[C@@H]1CN(Cc2ccc(-c3ccccc3)cc2F)CCN1C(=O)n1ccc(C(=O)O)n1 [Example 253, (R)-1-(4-((3-fluoro-[1,1′-biphenyl]-4-yl)methyl)-2-methylpiperazine-1-carbonyl)-1H-pyrazole-3-carboxylic acid]
Cc1cc(O[C@H]2C[C@@H]3CN(C(=O)n4ccc(C(=O)O)n4)C[C@@H]3C2)ccc1C(F)(F)F [Example 254, 1-(trans-5-(3-methyl-4-(trifluoromethyl)-phenoxy)-octahydrocyclopenta-[c]pyrrole-2-carbonyl)-1H-pyrazole-3-carboxylic acid]
C[C@@H]1C[C@H](N(C)Cc2cccc(C(F)(F)F)c2)CCN1C(=O)n1ccc(C(N)=O)n1 [Example 257, 1-((2R,4R)-2-methyl-4-(methyl(3-(trifluoromethyl)-benzyl)amino)-piperidine-1-carbonyl)-1H-pyrazole-3-carboxamide]
CN(Cc1cccc(C(F)(F)F)c1)C1(C)CCN(C(=O)n2ccc(C(N)=O)n2)CC1 [Example 258]
C[C@H]1C[C@H](N(C)Cc2cccc(C(F)(F)F)c2)CCN1C(=O)n1ccc(C(N)=O)n1 [Example 259, 1-((2S,4R)-2-methyl-4-(methyl(3-(trifluoromethyl)-benzyl)amino)-piperidine-1-carbonyl)-1H-pyrazole-3-carboxamide]
C[C@@H]1C[C@@H](N(C)Cc2cccc(C(F)(F)F)c2)CCN1C(=O)n1ccc(C(N)=O)n1 [Example 260, 1-((2R,4S)-2-methyl-4-(methyl(3-(trifluoromethyl)-benzyl)amino)-piperidine-1-carbonyl)-1H-pyrazole-3-carboxamide]
O=C(O)c1ccn(C(=O)N2C[C@H]3C[C@H](Oc4cccc(-c5nccs5)c4)C[C@H]3C2)n1 [Example 261, 1-(trans-5-(3-(thiazol-2-yl)phenoxy)-octahydrocyclopenta-[c]pyrrole-2-carbonyl)-1H-pyrazole-3-carboxylic acid]
O=C(O)c1ccn(C(=O)N2CCN(Cc3cccc(Oc4ccc(F)cn4)c3)CC2)n1 [Example 266, 1-(4-(3-((5-fluoropyridin-2-yl)oxy)benzyl)-piperazine-1-carbonyl)-1H-pyrazole-3-carboxylic acid]
O=C(O)c1ccn(C(=O)N2C[C@H]3C[C@H](Oc4ccccc4C4CCOCC4)C[C@H]3C2)n1 [Example 268, 1-(trans-5-(2-(tetrahydro-2H-pyran-4-yl)phenoxy)-octahydrocyclopenta-[c]pyrrole-2-carbonyl)-1H-pyrazole-3-carboxylic acid]
O=C(O)c1ccn(C(=O)N2CCN(Cc3cc(Cl)cc(-c4cncnc4)c3)CC2)n1 [Example 269, 1-(4-(3-chloro-5-(pyrimidin-5-yl)benzyl)-piperazine-1-carbonyl)-1H-pyrazole-3-carboxylic acid]
C[C@H]1CN(Cc2cc(Cl)cc(C(F)(F)F)c2)CCN1C(=O)n1ccc(C(N)=O)n1 [Example 271, (S)-1-(4-(3-chloro-5-(trifluoromethyl)-benzyl)-2-methylpiperazine-1-carbonyl)-1H-pyrazole-3-carboxamide]
C[C@@H]1CN(Cc2cc(Cl)cc(C(F)(F)F)c2)CCN1C(=O)n1ccc(C(N)=O)n1 [Example 272, (R)-1-(4-(3-chloro-5-(trifluoromethyl)-benzyl)-2-methylpiperazine-1-carbonyl)-1H-pyrazole-3-carboxamide]
O=C(O)c1ccn(C(=O)N2CCN(Cc3ccc(Cl)c(-c4nccs4)c3)CC2)n1 [Example 274, 1-(4-(4-chloro-3-(thiazol-2-yl)benzyl)-piperazine-1-carbonyl)-1H-pyrazole-3-carboxylic acid]
O=C(O)c1ccn(C(=O)N2CCC(OCc3cc(Cl)cc(C(F)(F)F)c3)CC2)n1 [Example 275, 1-(4-((3-chloro-5-(trifluoromethyl)-benzyl)oxy)-piperidine-1-carbonyl)-1H-pyrazole-3-carboxylic acid]
O=C(O)c1ccn(C(=O)N2CCC(OCc3ccc(Cl)c(C(F)(F)F)c3)CC2)n1 [Example 276, 1-(4-((4-chloro-3-(trifluoromethyl)-benzyl)oxy)-piperidine-1-carbonyl)-1H-pyrazole-3-carboxylic acid]
O=C(O)c1ccn(C(=O)N2C[C@H]3C[C@H](OCc4cccc(-c5ccccc5)c4)C[C@H]3C2)n1 [Example 278, 1-(trans-5-([1,1′-biphenyl]-3-ylmethoxy)-octahydrocyclopenta-[c]pyrrole-2-carbonyl)-1H-pyrazole-3-carboxylic acid]
